Experimental data reported in patent US7414049B2, “4-oxo-2,3,4,5-tetrahydro-benzo[b][1,4]diazepine derivatives” (Hoffmann-La Roche Inc., priority 2006, dated 2008).
Converted amounts (≈) assume the structure as drawn.

What was measured:
[1] = Microsome incubation, metabolic stability (human); type: in vitro ADME; settings: for microsomal CLint at 10 μM: pH 7.4, human liver microsomes 2.0 mg prot/mL, test compound 10 μM, 37° C., read-out: Intrinsic clearance (human)
Protocol: The compounds of formula I of the present invention are further characterized by high metabolic stability. This parameter is a prerequisite for good bioavailability, which is necessary to obtain medicaments with acceptable in-vivo activity. The metabolic stability has been tested by the following method:
Incubation mixtures consisted of liver microsomes (rat 1.0 mg prot/mL or human 2.0 mg prot/mL), test compound 10 μM, MgCl2 (3.3 mM), and an NADPH regenerating system consisting of glucose-6-phosphate dehydrogenase, NADPH and glucose-6-phosphate (equivalent to 1 mM NADPH) in a total volume of 1.0 mL of potassium phosphate buffer 100 mM pH 7.4. Reactions were initiated by addition of the NADPH regenerating system at 37° C. At the time of 1, 5, 9, 13, 17, 21, 25, and 29 min a 5 μL aliquot was directly analysed on a HPLC-MS/MS system consisting of a HP 1100 quaternary pump with degasser and a PE-Sciex API-2000 MS/MS spectrometer. The analytical column was a Waters Symmetry Shield RP8 (2.1*50 mm with a […] particle size). A polarity non linear gradient from phase A (MeOH/Ac. Form. 1% 20/80) to phase B (MeOH) was applied for a total run time of 2 minutes at a flow rate of 0.25 mL/min. The PE-Sciex API-2000 MS/MS spectrometer was used for detection of the parent compound. In vivo metabolic clearance was predicted according to published procedures [Houston, Biochem. Pharmacol. 47:1469-1479 (1994)]. In brief, the intrinsic clearance (Clearance, see table below) is calculated from the measured in vitro half-life taking into account incubation volume and microsomal protein used for the in vitro incubation. The intrinsic clearance is expressed in terms of μl/min/mg microsomal protein. For in vivo extrapolations, the hepatic extraction ratio (E) was calculated. Here it is reported the % MAB value which is equal to 1-E. The MAB (maximal achievable bioavailability) values express the maximal bioavailability that one can achieve with the given clearance values.

[2] = Microsome incubation, metabolic stability (mouse); type: in vitro ADME; settings: for microsomal CLint at 10 μM: pH 7.4, liver microsomes, test compound 10 μM, 37° C., read-out: Intrinsic clearance (mouse)
[3] = THESA assay, thermodynamic solubility; type: physicochemical; settings: 22.5 °C, aqueous buffer, thermodynamic from solid; 50 mM phosphate buffer, room temperature (22.5±1° C.)
Protocol: In addition, the compounds of the present invention have been tested in a THESA assay for determination of the thermodynamic solubility.
Approximately 2 mg of each compound was added in excess to a 50 mM phosphate buffer, at room temperature (22.5±1° C.). Each sample was placed in a microanalysis tube, which was sonicated for 1 h and agitated for 2 h. All suspensions were left overnight. At the next day all pHs were measured with a pH-meter and the samples filtered with a micronic filterplate (MSGVN2250) to separate the solid material from the solution. Then, all solutions were analyzed by HPLC. The calibration line was established by different concentrations of the compound in DMSO. From this regression equation the solubility of the compound was determined.

[4] = maximal achievable bioavailability = 1-E, extrapolated from intrinsic clearance

MAB (human) [1, 4] | microsomal CLint at 10 μM [1] | MAB (mouse) [2, 4] | microsomal CLint at 10 μM [2] | solubility thermodynamic [3] | MAB (human) ([1]; comparison table) | MAB (mouse) ([2]; comparison table) | Compound
74.9% | 5.2 µL/min/mg | 49.3% | 32.5 µL/min/mg |  |  |  | CC(O)(C(=O)NCC(F)(F)C(F)(F)F)C(=O)N[C@H]1CN(CCO)c2ccccc2NC1=O (mixture of isomers) [Example 7, (RS)-2-Hydroxy-N-[(S)-1-(2-hydroxy-ethyl)-4-oxo-2,3,4,5-tetrahydro-1H-benzo[b][1,4]diazepin-3-yl]-2-methyl-N′-(2,2,3,3,3-pentafluoro-propyl)-malonamide]
99.7% | 0.05 µL/min/mg | 58.5% | 22.4 µL/min/mg | 77 µg/mL (≈ 131 µM) |  |  | CC(O)(C(=O)NCC(F)(F)C(F)(F)F)C(=O)N[C@H]1CN(C(=O)OCC(F)(F)F)c2cc(F)c(F)cc2NC1=O (single isomer, unassigned) [Example 1, (S)-7,8-Difluoro-3-[(R or S)-2-hydroxy-2-(2,2,3,3,3-pentafluoro-propylcarbamoyl)-propionylamino]-4-oxo-2,3,4,5-tetrahydro-benzo[b][1,4]diazepine-1-carboxylic acid 2,2,2-trifluoro-ethyl ester and (S)-7,8-Difluoro-3-[(S or R)-2-hydroxy-2-(2,2,3,3,3-pentafluoro-propylcarbamoyl)-propionylamino]-4-oxo-2,3,4,5-tetrahydro-benzo[b][1,4]diazepine-1-carboxylic acid 2,2,2-trifluoro-ethyl ester]
54.3% | 13.1 µL/min/mg | 83.0% | 6.5 µL/min/mg |  |  |  | CC(O)(C(=O)NCC(F)(F)C(F)(F)F)C(=O)N[C@H]1CN(C(=O)OCC(F)(F)F)c2cc(F)c(F)cc2N(CC(F)(F)F)C1=O (single isomer, unassigned) [Example 2]
56.7% | 11.9 µL/min/mg | 20.1% | 126 µL/min/mg |  |  |  | CC(O)(C(=O)NCC(F)(F)C(F)(F)F)C(=O)N[C@H]1CN(CC(F)(F)F)c2ccc(F)cc2NC1=O (single isomer, unassigned) [Example 3, N-[(S)-7-Fluoro-4-oxo-1-(2,2,2-trifluoro-ethyl)-2,3,4,5-tetrahydro-1H-benzo[b][1,4]diazepin-3-yl]-(R or S)-2-hydroxy-2-methyl-N′-(2,2,3,3,3-pentafluoro-propyl)-malonamide and N-[(S)-7-Fluoro-4-oxo-1-(2,2,2-trifluoro-ethyl)-2,3,4,5-tetrahydro-1H-benzo[b][1,4]diazepin-3-yl]-(S or R)-2-hydroxy-2-methyl-N′-(2,2,3,3,3-pentafluoro-propyl)-malonamide]
55.5% | 12.5 µL/min/mg | 19.6% | 130 µL/min/mg |  | 55.5% | 19.6% | CC(O)(C(=O)NCC(F)(F)C(F)(F)F)C(=O)N[C@H]1CN(CC(F)(F)F)c2ccccc2NC1=O (single isomer, unassigned) [Example 4, (R or S)-2-Hydroxy-2-methyl-N-[(S)-4-oxo-1-(2,2,2-trifluoro-ethyl)-2,3,4,5-tetrahydro-1H-benzo[b][1,4]diazepin-3-yl]-N′-(2,2,3,3,3-pentafluoro-propyl)-malonamide and (S or R)-2-Hydroxy-2-methyl-N-[(S)-4-oxo-1-(2,2,2-trifluoro-ethyl)-2,3,4,5-tetrahydro-1H-benzo[b][1,4]diazepin-3-yl]-N′-(2,2,3,3,3-pentafluoro-propyl)-malonamide]
45.5% | 18.6 µL/min/mg | 10.8% | 262 µL/min/mg | 67 µg/mL (≈ 129 µM) |  |  | CC(O)(C(=O)NCC(F)(F)C(F)(F)F)C(=O)N[C@H]1CN(CCC(F)(F)F)c2ccccc2NC1=O (single isomer, unassigned) [Example 5, (R or S)-2-Hydroxy-2-methyl-N-[(S)-4-oxo-1-(3,3,3-trifluoro-propyl)-2,3,4,5-tetrahydro-1H-benzo[b][1,4]diazepin-3-yl]-N′-(2,2,3,3,3-pentafluoro-propyl)-malonamide and (S or R)-2-Hydroxy-2-methyl-N-[(S)-4-oxo-1-(3,3,3-trifluoro-propyl)-2,3,4,5-tetrahydro-1H-benzo[b][1,4]diazepin-3-yl]-N′-(2,2,3,3,3-pentafluoro-propyl)-malonamide]
49.4% | 15.9 µL/min/mg | 25.0% | 94.9 µL/min/mg | 124 µg/mL (≈ 232 µM) |  |  | CC(O)(C(=O)NCC(F)(F)C(F)(F)F)C(=O)N[C@H]1CN(CCCC(F)(F)F)c2ccccc2NC1=O (single isomer, unassigned) [Example 6, (R or S)-2-Hydroxy-2-methyl-N-[(S)-4-oxo-1-(4,4,4-trifluoro-butyl)-2,3,4,5-tetrahydro-1H-benzo[b][1,4]diazepin-3-yl]-N′-(2,2,3,3,3-pentafluoro-propyl)-malonamide and (S or R)-2-Hydroxy-2-methyl-N-[(S)-4-oxo-1-(4,4,4-trifluoro-butyl)-2,3,4,5-tetrahydro-1H-benzo[b][1,4]diazepin-3-yl]-N′-(2,2,3,3,3-pentafluoro-propyl)-malonamide]
100.0% |  | 37.5% | 52.7 µL/min/mg | 2670 µg/mL (≈ 4850 µM) |  |  | CC(O)(C(=O)NCC(F)(F)C(F)(F)F)C(=O)N[C@H]1CN(CCO)c2ccccc2N(CC(F)(F)F)C1=O (single isomer, unassigned) [Example 8, (R or S)-2-Hydroxy-N-[(S)-5-(2-hydroxy-ethyl)-2-oxo-1-(2,2,2-trifluoro-ethyl)-2,3,4,5-tetrahydro-1H-benzo[b][1,4]diazepin-3-yl]-2-methyl-N′-(2,2,3,3,3-pentafluoro-propyl)-malonamide]
88.2% | 2.1 µL/min/mg | 32.7% | 65.2 µL/min/mg | 1780 µg/mL (≈ 3240 µM) |  |  | CC(O)(C(=O)NCC(F)(F)C(F)(F)F)C(=O)N[C@H]1CN(CC(F)(F)F)c2ccccc2N(CCO)C1=O (single isomer, unassigned) [Example 9, (R or S)-2-Hydroxy-N-[(S)-1-(2-hydroxy-ethyl)-2-oxo-5-(2,2,2-trifluoro-ethyl)-2,3,4,5-tetrahydro-1H-benzo[b][1,4]diazepin-3-yl]-2-methyl-N′-(2,2,3,3,3-pentafluoro-propyl)-malonamide]
87.4% | 2.2 µL/min/mg | 100% |  |  |  |  | CC(O)(C(=O)NCC(F)(F)C(F)(F)F)C(=O)N[C@H]1CN(C(=O)OCCCC(F)(F)F)c2ccccc2N(CCCC(F)(F)F)C1=O (single isomer, unassigned) [Example 13]
 |  |  |  |  | 26.8% | 47.6% | CC(C(=O)NCC(F)(F)C(F)(F)F)C(=O)N[C@H]1CN(C(=O)OCC2CC2)c2ccccc2N(CC(F)(F)F)C1=O (some centres unmarked) [reference compound]
